Reference: patent US20250163022A1, “PARP1 INHIBITORS” (Synnovation Therapeutics, Inc., priority 2021, published 2025)

Target: T1, PARP1 (Homo sapiens, UniProt P09874)
T1 construct: HeLa cells (wide-type with PARP1 gene) were purchased from ATCC; host or cells: HeLa (wild type)
Assay: In-Cell Western measurement of PARylation in PARP1 WT and knockout cells
Format: cell-based
Conditions: HeLa cells (wide-type with PARP1 gene); hydrogen peroxide-induced PARylation; compounds 30 min, then 10 mM hydrogen peroxide 15 min; read-out: HeLa_WT_IC50
Excerpt: The purpose of this cell-based assay is to measure the potency and selectivity of synthesized PARP inhibitors in suppressing hydrogen peroxide-induced PARylation in cells with and without PARP1 expression. Several cell lines were used in this assay. The human PARP1 knockout HEK-293T cell line (#ab266598) was purchased from Abcam, and its corresponding wide-type control is the human wild-type HEK-293T cell line (#ab255449). The HAP1 isogenic cell lines with and without the PARP1 gene (#HZGHC003943c006) were purchased from Horizon Discovery. HeLa cells (wide-type with PARP1 gene) were purchased from ATCC. Cells were cultured using complete medium containing 10% fetal bovine serum. One day before the assay, cells were seeded in 96-well plates at the density of 20,000 cells per well in 100 uL complete medium. Compounds were dissolved using DMSO and diluted to the working concentrations using complete medium. Cells were pre-treated with compounds for 30 min and then stimulated with 10 mM hydrogen peroxide for 15 min. After stimulation, cells were immediately fixed using ice-cold methanol for 20 min. After fixation, cells were washed using 1×PBST buffer for 3 times, 5 min each time, to eliminate residual methanol. Cells were blocked for 2 h at room temperature in blocking buffer (LI-COR Biosciences, #927-70001). Primary antibody was diluted in diluent buffer (LI-COR Biosciences, #927-75001, 1:200) at 50 uL per well. Cells were incubated with the primary antibody at 4° C. for 18 h. The wells were then washed using 1×PBST for 3 times, 5 min each time. IRDye® 680RD Goat anti-Mouse IgG (H+L) secondary antibody was diluted at 1/2000 using the diluent buffer and added at 100 μL per well. Secondary antibody incubation was for 1 h at room temperature. Cells were then washed using 1×PBST for 3 times, 5 min each time. The signal was detected and analyzed using LI-COR Odyssey DLx Imaging system. Data were collected and further processed using GraphPad Prism for IC50 estimation.

T1 sequence (P09874 whole entry): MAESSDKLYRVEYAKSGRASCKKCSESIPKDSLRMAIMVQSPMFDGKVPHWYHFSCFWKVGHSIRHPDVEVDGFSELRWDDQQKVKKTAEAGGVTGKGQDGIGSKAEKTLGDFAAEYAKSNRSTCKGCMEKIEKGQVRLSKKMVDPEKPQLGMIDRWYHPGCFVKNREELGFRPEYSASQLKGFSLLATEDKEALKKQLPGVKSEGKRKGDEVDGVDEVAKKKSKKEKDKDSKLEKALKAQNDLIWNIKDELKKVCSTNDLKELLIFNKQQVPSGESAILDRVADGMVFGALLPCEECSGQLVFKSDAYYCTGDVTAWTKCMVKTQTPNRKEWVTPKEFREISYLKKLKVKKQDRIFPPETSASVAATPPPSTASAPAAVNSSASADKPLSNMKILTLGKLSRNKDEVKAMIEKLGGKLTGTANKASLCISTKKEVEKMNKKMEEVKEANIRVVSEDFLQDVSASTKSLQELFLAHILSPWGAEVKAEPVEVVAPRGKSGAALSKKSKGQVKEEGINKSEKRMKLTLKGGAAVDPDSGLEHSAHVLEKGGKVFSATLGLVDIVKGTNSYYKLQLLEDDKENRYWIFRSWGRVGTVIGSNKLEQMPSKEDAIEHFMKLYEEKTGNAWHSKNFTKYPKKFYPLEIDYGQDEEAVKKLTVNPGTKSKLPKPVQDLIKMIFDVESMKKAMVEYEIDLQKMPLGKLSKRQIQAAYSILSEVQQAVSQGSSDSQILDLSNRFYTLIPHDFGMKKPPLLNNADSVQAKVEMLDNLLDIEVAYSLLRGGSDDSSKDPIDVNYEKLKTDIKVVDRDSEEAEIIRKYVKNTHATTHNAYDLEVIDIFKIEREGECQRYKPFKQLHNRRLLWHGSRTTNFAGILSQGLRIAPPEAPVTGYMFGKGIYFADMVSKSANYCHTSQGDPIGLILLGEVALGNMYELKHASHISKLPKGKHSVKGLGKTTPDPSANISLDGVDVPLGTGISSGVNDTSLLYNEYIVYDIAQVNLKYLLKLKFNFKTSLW

| IC50 | Compound |
| --- | --- |
| ≤ 10 nM | CCn1c(=O)[nH]c2cc(CN3CCN(c4ccc(C(=O)NC)nc4)CC3)ccc2c1=O [Compound I-1, 5-(4-((3-Ethyl-2,4-dioxo-1,2,3,4-tetrahydroquinazolin-7-yl)methyl)piperazin-1-yl)-N-methylpicolinamide] |
| 10 to 100 nM | CCN1Cc2ccc(CN3CCN(c4ccc(C(=O)NC)nc4)CC3)cc2NC1=O [Compound I-2, 5-(4-((3-Ethyl-2-oxo-1,2,3,4-tetrahydroquinazolin-7-yl)methyl)piperazin-1-yl)-N-methylpicolinamide] |
| 100 to 500 nM | CNC(=O)c1ccc(N2CCN(Cc3ccc4c(c3)NC(=O)C3CC43)CC2)cn1 (stereo not shown) [Compound I-3, N-Methyl-5-(4-((2-oxo-1a,2,3,7b-tetrahydro-1H-cyclopropa[c]quinolin-5-yl)methyl)piperazin-1-yl)picolinamide] |
| ≤ 10 nM | CNC(=O)c1ccc(N2CCN(Cc3ccc4c5c(c(=O)[nH]c4c3)CCC5)CC2)cn1 [Compound I-4, N-methyl-5-(4-((4-oxo-2,3,4,5-tetrahydro-1H-cyclopenta[c]quinolin-7-yl)methyl)piperazin-1-yl)picolinamide] |
| 10 to 100 nM | CNC(=O)c1ccc(N2CCN(Cc3ccc4c(c3)NC(=O)C3(CC3)C4)CC2)cn1 [Compound I-5, N-methyl-5-(4-((2′-oxo-1′,4′-dihydro-2′H-spiro[cyclopropane-1,3′-quinolin]-7′-yl)methyl)piperazin-1-yl)picolinamide] |
| ≤ 10 nM | CNC(=O)c1ccc(N2CCN(Cc3cnc4c5c(c(=O)[nH]c4c3)CCC5)CC2)cn1 [Compound I-6, N-methyl-5-(4-((6-oxo-6,7,8,9-tetrahydro-5H-cyclopenta[c][1,5]naphthyridin-3-yl)methyl)piperazin-1-yl)picolinamide] |
| ≤ 10 nM | CNC(=O)c1ccc(N2CCN(Cc3ccc4c(c3)[nH]c(=O)c3c4ccn3C)CC2)cn1 [Compound I-7, N-methyl-5-(4-((3-methyl-4-oxo-4,5-dihydro-3H-pyrrolo[2,3-c]quinolin-7-yl)methyl)piperazin-1-yl)picolinamide] |
| ≤ 10 nM | CNC(=O)c1ccc(N2CCN(Cc3ccc4c(c3)[nH]c(=O)c3ccn(C)c34)CC2)cn1 [Compound I-8, N-methyl-5-(4-((1-methyl-4-oxo-4,5-dihydro-1H-pyrrolo[3,2-c]quinolin-7-yl)methyl)piperazin-1-yl)picolinamide] |
| 100 to 500 nM | CCn1c(=O)[nH]c2cc(CN3CCN(c4ccc(C(=O)NC)nc4)CC3)cnc2c1=O [Compound I-9, 5-(4-((3-Ethyl-2,4-dioxo-1,2,3,4-tetrahydropyrido[3,2-d]pyrimidin-7-yl)methyl)piperazin-1-yl)-N-methylpicolinamide] |
| 10 to 100 nM | CNC(=O)c1ccc(N2CCN(Cc3ccc4c(c3)[nH]c(=O)c3c4cnn3C)CC2)cn1 [Compound I-10, N-methyl-5-(4-((3-methyl-4-oxo-4,5-dihydro-3H-pyrazolo[3,4-c]quinolin-7-yl)methyl)piperazin-1-yl)picolinamide] |
| 10 to 100 nM | CCN1Cc2ncc(CN3CCN(c4ccc(C(=O)NC)nc4)CC3)cc2NC1=O [Compound I-11, 5-(4-((3-Ethyl-2-oxo-1,2,3,4-tetrahydropyrido[3,2-d]pyrimidin-7-yl)methyl)piperazin-1-yl)-N-methylpicolinamide] |
| ≤ 10 nM | CNC(=O)c1ccc(N2CCN(Cc3ccc4c(=O)n(CC(F)F)c(=O)[nH]c4c3)CC2)cn1 [Compound I-12, 5-(4-((3-(2,2-Difluoroethyl)-2,4-dioxo-1,2,3,4-tetrahydroquinazolin-7-yl)methyl)piperazin-1-yl)-N-methylpicolinamide] |
| ≤ 10 nM | CCc1cc2sc(CN3CCN(c4ccc(C(=O)NC)nc4)CC3)cc2[nH]c1=O [Compound I-13, 5-(4-((6-Ethyl-5-oxo-4,5-dihydrothieno[3,2-b]pyridin-2-yl)methyl)piperazin-1-yl)-N-methylpicolinamide] |
| ≤ 10 nM | CCc1c2c3c(cc(CN4CCN(c5ccc(C(=O)NC)nc5)CC4)cc3[nH]c1=O)OCC2 [Compound I-14, 5-(4-((4-Ethyl-5-oxo-2,3,5,6-tetrahydropyrano[4,3,2-de]quinolin-8-yl)methyl)piperazin-1-yl)-N-methylpicolinamide] |
| ≤ 10 nM | CCN1C(=O)Nc2cc(CN3CCN(c4ccc(C(=O)NC)nc4)CC3)cc3ncnc1c23 [Compound I-15, 5-(4-((3-Ethyl-2-oxo-2,3-dihydro-1H-pyrimido[4,5,6-de]quinazolin-8-yl)methyl)piperazin-1-yl)-N-methylpicolinamide] |
| ≤ 10 nM | CCn1c(=O)[nH]c2cc(CN3CCN(c4ccc(C(=O)NC)nc4C)CC3)ccc2c1=O [Compound I-16, 5-(4-((3-ethyl-2,4-dioxo-1,2,3,4-tetrahydroquinazolin-7-yl)methyl)piperazin-1-yl)-N,6-dimethylpicolinamide] |
| ≤ 10 nM | CCN1C(=O)Nc2cc(CN3CCN(c4ccc(C(=O)NC)nc4C)CC3)cc3ncnc1c23 [Compound I-17, 5-(4-((3-Ethyl-2-oxo-2,3-dihydro-1H-pyrimido[4,5,6-de]quinazolin-8-yl)methyl)piperazin-1-yl)-N,6-dimethylpicolinamide] |
| ≤ 10 nM | CCN1C(=O)Nc2cc(CN3CCN(c4ccc(C(=O)NC)nc4C(F)(F)F)CC3)cc3ncnc1c23 [Compound I-18, 5-(4-((3-Ethyl-2-oxo-2,3-dihydro-1H-pyrimido[4,5,6-de]quinazolin-8-yl)methyl)piperazin-1-yl)-N-methyl-6-(trifluoromethyl)picolinamide] |
| ≤ 10 nM | CCN1C(=O)Nc2cc(CN3CCN(c4ccc(C(=O)NC)nc4F)CC3)cc3ncnc1c23 [Compound I-19, 5-(4-((3-ethyl-2-oxo-2,3-dihydro-1H-pyrimido[4,5,6-de]quinazolin-8-yl)methyl)piperazin-1-yl)-6-fluoro-N-methylpicolinamide] |
| ≤ 10 nM | CNC(=O)c1ccc(N2CCN(Cc3cnc4c5c(c(=O)[nH]c4c3)CCC5)CC2)c(C)n1 [Compound I-20, N,6-dimethyl-5-(4-((6-oxo-6,7,8,9-tetrahydro-5H-cyclopenta[c][1,5]naphthyridin-3-yl)methyl)piperazin-1-yl)picolinamide] |
| ≤ 10 nM | CCn1c(=O)[nH]c2c(F)c(CN3CCN(c4ccc(C(=O)NC)nc4C)CC3)ccc2c1=O [Compound I-21, 5-(4-((3-ethyl-8-fluoro-2,4-dioxo-1,2,3,4-tetrahydroquinazolin-7-yl)methyl)piperazin-1-yl)-N,6-dimethylpicolinamide] |
| ≤ 10 nM | CCn1c(=O)[nH]c2cc(CN3CCN(c4ccc(C(=O)NC)nc4C)CC3)cc(F)c2c1=O [Compound I-22, 5-(4-((3-ethyl-5-fluoro-2,4-dioxo-1,2,3,4-tetrahydroquinazolin-7-yl)methyl)piperazin-1-yl)-N,6-dimethylpicolinamide] |
| ≤ 10 nM | CNC(=O)c1ccc(N2CCN(Cc3cnc4c5c(c(=O)[nH]c4c3)CCC5)CC2)c(C(F)(F)F)n1 [Compound I-23, N-methyl-5-(4-((6-oxo-6,7,8,9-tetrahydro-5H-cyclopenta[c][1,5]naphthyridin-3-yl)methyl)piperazin-1-yl)-6-(trifluoromethyl)picolinamide] |
| ≤ 10 nM | CNC(=O)c1ccc(N2CCN(Cc3cnc4c5c(c(=O)[nH]c4c3)CCC5)CC2)c(F)n1 [Compound I-24, 6-Fluoro-N-methyl-5-(4-((6-oxo-6,7,8,9-tetrahydro-5H-cyclopenta[c][1,5]naphthyridin-3-yl)methyl)piperazin-1-yl)picolinamide] |
| ≤ 10 nM | CNC(=O)c1ccc(N2CCN(Cc3ncc4c5c(c(=O)[nH]c4c3F)CCC5)CC2)c(C)n1 [Compound I-25, 5-(4-((4-Fluoro-6-oxo-6,7,8,9-tetrahydro-5H-cyclopenta[c][1,6]naphthyridin-3-yl)methyl)piperazin-1-yl)-N,6-dimethylpicolinamide] |
| ≤ 10 nM | CNC(=O)c1ccc(N2CCN(Cc3ncc4c5c(c(=O)[nH]c4c3F)CCC5)CC2)cn1 [Compound I-26, 5-(4-((4-Fluoro-6-oxo-6,7,8,9-tetrahydro-5H-cyclopenta[c][1,6]naphthyridin-3-yl)methyl)piperazin-1-yl)-N-methylpicolinamide] |
| ≤ 10 nM | CNC(=O)c1ccc(N2CCN(Cc3ncc4c5c(c(=O)[nH]c4c3F)CCC5)CC2)c(F)n1 [Compound I-27, 6-Fluoro-5-(4-((4-fluoro-6-oxo-6,7,8,9-tetrahydro-5H-cyclopenta[c][1,6]naphthyridin-3-yl)methyl)piperazin-1-yl)-N-methylpicolinamide] |
| ≤ 10 nM | CNC(=O)c1ccc(N2CCN(Cc3ncc4c5c(c(=O)[nH]c4c3F)CCC5)CC2)c(C(F)(F)F)n1 [Compound I-28, 5-(4-((4-Fluoro-6-oxo-6,7,8,9-tetrahydro-5H-cyclopenta[c][1,6]naphthyridin-3-yl)methyl)piperazin-1-yl)-N-methyl-6-(trifluoromethyl)picolinamide] |
